Data set [1] concerns the target T1, BAX (Homo sapiens, UniProt Q07812).
T1 construct: Human full-length (1-192) wild-type BAX (Q07812); made in house; host or cells: E. coli BL21 (DE3) CodonPlus (DE3)-RIPL
Put plainly: Liposomal permeabilization (ANTS/DPX release) assay. Type of data set: biochemical. The following applies: 50 nM BAX and 5 nM tBID; compared with EO. As for the experimental part:
Lipids (Avanti Polar Lipids) at the following ratio, phosphatidylcholine 48%, phosphatidylinositol 10%, dioleoyl phosphatidylserine 10%, phosphatidylethanolamine, 28%, and tetraoleoyl cardiolipin 4%, were mixed in a total of 1 mg, dried and resuspended in 10 mM HEPES, pH 7, 200 mM KCI, and 5 mM MgCl2 with 12.5 mM 8-aminonaphthalene-1,3,6-trisulfonic acid (ANTS) dye and 45 mM p-xylene-bis-pyridinium bromide (DPX) quencher (Molecular Probes) using a water bath sonicator. Liposomes were formed by extrusion of the suspension using Avanti Mini-Extruder (Cat # 610000) with polycarbonate membranes of 0.1 µm pore size (Avanti Polar Lipids). ANTS/DPX encapsulated liposomes were purified from non-encapsulated ANTS/DPX by gel filtration of a 10 mL CL2B-Sepharose (GE Healthcare Life Sciences) gravity-flow column. BAX (50-250 nM) was combined with tBID, BIM, and EO at the indicated concentrations to a volume of 90 µL. Reactions were initiated by the addition of […] of the encapsulated ANTS/DPX liposome stock. ANTS/DPX release was quantified based on the increase in fluorescence intensity that occurs when the ANTS fluorophore is separated from the DPX quencher upon release from the liposomes into solution. Fluorescence (λex = 355 nm and λem = 520 nm) was measured at 1 minute intervals at room temperature (22-25° C.) indicated using a Tecan Infinite M1000 plate reader. In the case of heat activation, reactions were set up as described in the absence of tBID or BIM, and experiments were recorded at 42° C. The percentage release of ANTS/DPX at any given time point was calculated as percentage release=((F-F0)/(F100-F0))(100), where F0 and F100 are baseline and maximal fluorescence, respectively. Triton X-100 (1%) was used to determine the maximum amount of liposomal release per assay and was set to 100%.
Next, EO’s capacity to modulate BAX activity was evaluated using liposomal release assays. […] Instead, EO was able to inhibit both tBID- and BIM BH3-mediated BAX activation (FIGS. 1E, 1F, and 1G). Inhibition of tBID-mediated BAX activation by EO was inversely proportional to the concentration of the tBID activator, consistent with competitive inhibition of BH3-activator binding.

Data set [2] deals with T1, BAX. Put plainly: Competitive fluorescence polarization binding assay (FPA), BAX / FITC-BIM-SAHB. The following applies: BAX 150 nM, FITC-BIM-SAHB 25 nM; read-out: IC50, competition of FITC-BIM-SAHB by FPA. On the procedure: Fluorescence polarization assays (FPA) were performed as previously described (Gavathiotis, E., et al. Nat Chem Biol 8, 639-645 (2012)). Direct binding isotherms of BIM-SAHB were measured by incubated FITC-BIM-SAHB (25 nM) with serial dilutions of full-length BAX alone or in the presence of 0.5 or 1 µM EO. Competition binding assays were performed by titrating ED into BAX (150 nM) and FITC-BIM-SAHB (25 nM). Measurements were taken at 10-minute intervals over 60 minutes on a TECAN F200 PRO microplate reader. Reported curves represent 10-minute time point. KD values and IC50 were determined using GraphPad Prism nonlinear fit four-parameter agonist or antagonist versus response with restraints for 100% and 0% bound calculated by the mP of saturated BAX + FITC-BIM-SAHB and FITC-BIM-SAHB alone.
To test this hypothesis, a competitive fluorescence polarization assay (FPA) (Gavathiotis, E., et al. Nat Chem Biol 8, 639-645 (2012)) based on the interaction between BAX and fluorescently-labeled stapled BIM-BH3 peptide (FITC-BIM-SAHB) was used (Gavathiotis, E., et al. Nature 455, 1076-1081 (2008)). […] The IC50 and KD are consistent with a competitive binding mechanism of EO displacing FITC-BIM-SAHB from the N-terminal trigger site of BAX.
(In general: In fluorescence polarisation assays a small probe gives low polarisation when free and higher when bound to something large.)

Data set [3] deals with platelets of C57BL/6J mice. Put plainly: In vivo mouse platelet experiments. The following applies: ABT-263 25 mg/kg single dose, oral gavage, within 24 hr. As for the experimental part:
Wild type black mice strain C57BL/6J were treated with vehicle, ABT-263 (25 mg/kg, single dose), EO (100 mg/kg, then 3 hrs later 50 mg/kg), or a combination of ABT-263 and EO. EO was formulated in dH2O, and ABT-263 was formulated in 10% ethanol, 30% polyethylene glycol 400, and 60% Phosal 50 PG. Both ABT-263 and EO were administered by oral gavage. Blood samples were collected by submandibular bleed before treatment and 24 hours following treatment, and CBC was acquired. Percentage platelet protection was calculated as follows: % Platelet Protection = (100)(Px - mPABT)/(mPv - mPABT) where Px is the platelet count for a given mouse, mPv is the mean vehicle treated platelet count, and mPABT is the mean ABT-263 treated platelet count. Statistical analysis was performed using one-way ANOVA with select multiple comparisons as shown.
Finally, whether EO can rescue thrombocytopenia induced by the activity of navitoclax was evaluated in mice. The use of navitoclax is limited by on-target toxicity triggering BAK/BAX-mediated platelet apoptosis (Zhang, H. et al. Cell Death Differ 14, 943-951 (2007)). […] This EO effect is distinct from its capacity to stimulate platelet production by differentiation of the megakaryocyte precursors and progenitor cells, which requires 5 days to begin (Erickson-Miller, C. L. et al. Stem Cells 27, 424-430 (2009); Jenkins, J. M. et al. Blood 109, 4739-4741 (2007)).

Structures are written as SMILES. A value given as a limit tells only on which side of the number the result lay.

T1 sequence (Q07812 whole entry): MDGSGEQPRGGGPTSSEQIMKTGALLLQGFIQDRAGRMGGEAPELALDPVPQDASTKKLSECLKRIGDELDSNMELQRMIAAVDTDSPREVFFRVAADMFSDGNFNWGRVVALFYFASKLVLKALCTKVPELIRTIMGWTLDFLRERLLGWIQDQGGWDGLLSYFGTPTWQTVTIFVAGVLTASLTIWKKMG

For `COC(=O)c1cccc(-c2cccc(NN=C3C(=O)N(c4ccc(C)c(C)c4)N=C3C)c2O)c1` [EO-Methyl Ester, eltrombopag methyl ester], the “inhibition of BAX in liposomal release assays” value on BAX [1] is “significantly diminished inhibition”. Moreover, at BAX [2], the IC50 (as a rule, the midpoint of a concentration-inhibition curve) is > 5 µM.

Take `CC1(C)CCC(c2ccc(Cl)cc2)=C(CN2CCN(c3ccc(C(=O)NS(=O)(=O)c4ccc(N[C@H](CCN5CCOCC5)CSc5ccccc5)c(S(=O)(=O)C(F)(F)F)c4)cc3)CC2)C1` [navitoclax]: the platelet loss result in data set [3] is reported as “significant platelet loss”.

The values are drawn from patent publication US20230270721A1, “INHIBITION OF BAX-MEDIATED CELL DEATH BY ELTROMBOPAG” (Albert Einstein College of Medicine, priority 2020, published 2023).
